Values belong to the compound of their own block, whether it stands above or below them.
Key:
CDK4/D1 = CDK4/D1 (Homo sapiens, UniProt P11802); test: ADP Glo Kinase assay CDK4/D1; assay type: biochemical; details: CDK4D1; compound at 10 μM; read-out: residual activity (%) at 10 μM CDK4D1
Summary of the method: (§1)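 Other CDKs and further kinases were profiled externally by radiometric assay. In-house ADP Glo assays covered CDK4/D1 and CDK6/D3 (RB-CTF substrate, pH 7.5 Tris buffer with MgCl2, DTT, BSA) and CDK9/T1 (RBER-IRStide substrate), 40 min at 37° C.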

CDK6/D3 = CDK6/D3 (Homo sapiens, UniProt Q00534); test: ADP Glo Kinase assay CDK6/D3; assay type: biochemical; details: CDK6D3; compound at 10 μM; read-out: residual activity (%) at 10 μM CDK6D3
Summary of the method: as §1

CDK9/T1 = CDK9/T1 (Homo sapiens, UniProt P50750); test: ADP Glo Kinase assay CDK9/T1; assay type: biochemical; details: CDK9T1; read-out: CDK inhibition, Ki (μM) CDK9T1
Summary of the method: as §1

CDKs and other kinases [1] = target: T1, CDKs and other kinases (Homo sapiens, UniProt P06493); test: Radiometric kinase assay (Eurofins Pharma Discovery or Reaction Biology Corporation Kinase Profiler); assay type: biochemical; details: CDK1B; for remaining activity at 10 µM: compound at 10 μM, read-out: residual activity (%) at 10 μM CDK1B; for Ki: read-out: CDK inhibition, Ki (μM) CDK1B
T1 construct: other: CDK1B; residual activity (%) at 10 μM CDK1B; compound at 10 μM
Summary of the method: as §1

CDKs and other kinases [2] = target: T2, CDKs and other kinases (Homo sapiens, UniProt P24941); test: as above; assay type: biochemical; details: CDK2A; for remaining activity at 10 µM: compound at 10 μM, read-out: residual activity (%) at 10 μM CDK2A; for Ki: read-out: CDK inhibition, Ki (μM) CDK2A
T2 construct: other: CDK2A; residual activity (%) at 10 μM CDK2A; compound at 10 μM
Summary of the method: as §1

CDKs and other kinases [3] = target: T3, CDKs and other kinases (Homo sapiens, UniProt P50613); test: as above; assay type: biochemical; details: CDK7H; for remaining activity at 10 µM: compound at 10 μM, read-out: residual activity (%) at 10 μM CDK7H; for Ki: read-out: CDK inhibition, Ki (μM) CDK7H
T3 construct: other: CDK7H; residual activity (%) at 10 μM CDK7H; compound at 10 μM
Summary of the method: as §1

leukemia cell lines = test: Resazurin cell viability assay on leukemia cell lines (72 h growth inhibition, GI50); assay type: cell-based; details: Homo sapiens, MV4-11 cells
Summary of the method: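 Standard published viability protocols apply here, MTT-based for solid tumour cells and resazurin-based for leukaemia cells, with 50% growth inhibition concentrations derived through non-linear regression.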

CDK9/T1, sequence (P50750 whole entry): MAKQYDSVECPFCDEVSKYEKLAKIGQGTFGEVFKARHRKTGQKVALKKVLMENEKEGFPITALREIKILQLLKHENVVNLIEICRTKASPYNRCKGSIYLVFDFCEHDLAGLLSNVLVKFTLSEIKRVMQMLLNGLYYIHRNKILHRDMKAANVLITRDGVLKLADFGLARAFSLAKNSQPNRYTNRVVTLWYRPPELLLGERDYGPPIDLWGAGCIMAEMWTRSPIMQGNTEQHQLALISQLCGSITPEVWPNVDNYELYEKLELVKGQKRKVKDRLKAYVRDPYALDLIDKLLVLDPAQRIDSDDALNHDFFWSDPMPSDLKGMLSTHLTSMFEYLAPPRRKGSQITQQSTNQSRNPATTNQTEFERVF
CDK9/T1, sequence (O60563 whole entry partner): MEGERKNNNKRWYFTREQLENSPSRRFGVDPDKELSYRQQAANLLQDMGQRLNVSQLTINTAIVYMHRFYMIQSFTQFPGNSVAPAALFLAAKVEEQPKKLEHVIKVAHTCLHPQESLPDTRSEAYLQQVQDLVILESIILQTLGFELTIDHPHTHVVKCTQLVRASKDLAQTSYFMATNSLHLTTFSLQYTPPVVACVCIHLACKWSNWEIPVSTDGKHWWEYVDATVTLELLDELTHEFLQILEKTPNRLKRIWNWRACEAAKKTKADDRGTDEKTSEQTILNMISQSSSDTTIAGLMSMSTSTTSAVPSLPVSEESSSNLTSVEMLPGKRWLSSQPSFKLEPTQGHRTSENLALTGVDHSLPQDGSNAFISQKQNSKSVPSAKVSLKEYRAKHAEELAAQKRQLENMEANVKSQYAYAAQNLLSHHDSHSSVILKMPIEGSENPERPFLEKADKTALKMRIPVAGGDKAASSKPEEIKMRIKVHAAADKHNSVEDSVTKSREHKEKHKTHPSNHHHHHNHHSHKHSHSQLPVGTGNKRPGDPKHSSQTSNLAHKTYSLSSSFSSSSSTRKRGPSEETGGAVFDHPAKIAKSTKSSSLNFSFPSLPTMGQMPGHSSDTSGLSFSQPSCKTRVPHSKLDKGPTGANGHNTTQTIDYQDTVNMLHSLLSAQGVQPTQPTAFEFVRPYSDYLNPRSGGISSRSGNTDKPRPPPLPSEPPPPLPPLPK
T3 sequence (P50613 whole entry): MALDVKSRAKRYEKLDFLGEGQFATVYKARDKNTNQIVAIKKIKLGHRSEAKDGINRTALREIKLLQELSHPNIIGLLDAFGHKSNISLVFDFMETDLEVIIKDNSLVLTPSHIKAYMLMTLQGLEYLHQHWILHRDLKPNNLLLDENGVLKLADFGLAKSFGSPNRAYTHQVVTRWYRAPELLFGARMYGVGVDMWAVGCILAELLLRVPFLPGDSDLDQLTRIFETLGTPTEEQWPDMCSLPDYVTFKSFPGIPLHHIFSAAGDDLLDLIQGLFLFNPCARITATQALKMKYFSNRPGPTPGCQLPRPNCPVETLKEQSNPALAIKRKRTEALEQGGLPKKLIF
T1 sequence (P06493 whole entry): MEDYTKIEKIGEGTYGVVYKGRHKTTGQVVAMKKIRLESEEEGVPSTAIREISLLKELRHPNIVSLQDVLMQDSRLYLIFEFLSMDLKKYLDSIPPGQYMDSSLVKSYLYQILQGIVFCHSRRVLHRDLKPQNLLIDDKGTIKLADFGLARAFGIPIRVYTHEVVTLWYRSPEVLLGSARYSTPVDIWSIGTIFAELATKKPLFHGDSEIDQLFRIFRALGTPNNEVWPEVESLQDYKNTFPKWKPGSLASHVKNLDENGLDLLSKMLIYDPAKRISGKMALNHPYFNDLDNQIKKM
CDK6/D3, sequence (Q00534 whole entry): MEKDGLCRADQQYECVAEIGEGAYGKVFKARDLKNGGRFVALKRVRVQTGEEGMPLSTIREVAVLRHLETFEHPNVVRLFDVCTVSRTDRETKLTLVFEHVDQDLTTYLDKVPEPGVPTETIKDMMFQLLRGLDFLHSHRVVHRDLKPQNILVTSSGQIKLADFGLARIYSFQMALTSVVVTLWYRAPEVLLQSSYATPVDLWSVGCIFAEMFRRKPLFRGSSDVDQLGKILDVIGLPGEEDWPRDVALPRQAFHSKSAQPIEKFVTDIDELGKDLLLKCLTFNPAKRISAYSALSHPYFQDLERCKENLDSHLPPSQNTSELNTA
CDK6/D3, sequence (P30281 whole entry partner): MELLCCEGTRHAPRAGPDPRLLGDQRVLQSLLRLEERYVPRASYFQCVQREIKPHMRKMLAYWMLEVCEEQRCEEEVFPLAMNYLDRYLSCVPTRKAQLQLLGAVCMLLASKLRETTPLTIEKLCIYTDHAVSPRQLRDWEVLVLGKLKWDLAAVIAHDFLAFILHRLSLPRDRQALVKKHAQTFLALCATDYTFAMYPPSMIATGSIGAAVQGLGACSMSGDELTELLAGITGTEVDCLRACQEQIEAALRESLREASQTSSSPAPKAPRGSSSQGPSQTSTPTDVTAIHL
CDK4/D1, sequence (P11802 whole entry): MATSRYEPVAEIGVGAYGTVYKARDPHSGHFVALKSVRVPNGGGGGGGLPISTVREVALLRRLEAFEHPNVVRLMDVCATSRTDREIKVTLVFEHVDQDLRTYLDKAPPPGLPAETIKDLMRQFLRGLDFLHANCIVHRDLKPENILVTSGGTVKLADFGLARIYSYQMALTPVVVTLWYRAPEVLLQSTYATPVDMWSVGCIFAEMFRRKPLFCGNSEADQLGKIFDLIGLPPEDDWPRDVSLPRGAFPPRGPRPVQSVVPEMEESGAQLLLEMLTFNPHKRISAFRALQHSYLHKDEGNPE
CDK4/D1, sequence (P24385 whole entry partner): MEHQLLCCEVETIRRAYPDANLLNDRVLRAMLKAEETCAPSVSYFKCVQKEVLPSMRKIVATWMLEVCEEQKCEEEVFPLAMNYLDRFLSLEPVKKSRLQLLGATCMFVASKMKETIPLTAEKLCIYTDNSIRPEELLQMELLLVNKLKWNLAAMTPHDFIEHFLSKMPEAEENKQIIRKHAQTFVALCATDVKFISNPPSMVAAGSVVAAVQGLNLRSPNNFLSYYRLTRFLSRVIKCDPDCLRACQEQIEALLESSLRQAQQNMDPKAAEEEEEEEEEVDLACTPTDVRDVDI

remaining activity at 10 µM (CDK4/D1): 7%
remaining activity at 10 µM (CDK6/D3): 96%
Ki (CDK9/T1): 0.12 µM
Ki (CDKs and other kinases [1]): 0.17 µM
Ki (CDKs and other kinases [2]): 0.044 µM
Ki (CDKs and other kinases [3]): 1.18 µM
GI50 (leukemia cell lines): 0.013 ± 0.002 µM
SMILES: Cc1cnc(N[C@H]2CC[C@H](N)CC2)nc1-c1cnc2ccc(-c3ccncc3)cn12 [Compound 37, (1r,4r)-N^1-(5-Methyl-4-(6-(pyridin-4-yl)imidazo[1,2-a]pyridin-3-yl)pyrimidin-2-yl)cyclohexane-1,4-diamine]

remaining activity at 10 µM (CDK4/D1): 0%
remaining activity at 10 µM (CDK6/D3): 80%
Ki (CDK9/T1): 0.065 µM
Ki (CDKs and other kinases [1]): 2.56 µM
Ki (CDKs and other kinases [2]): 0.91 µM
Ki (CDKs and other kinases [3]): 0.58 µM
GI50 (leukemia cell lines): 0.052 ± 0.011 µM
SMILES: N[C@H]1CC[C@H](Nc2ncc(Cl)c(-c3cnc4ccc(-c5cncnc5)cn34)n2)CC1 [Compound 38, (1r,4r)-N^1-(5-Chloro-4-(6-(pyrimidin-5-yl)imidazo[1,2-a]pyridin-3-yl)pyrimidin-2-yl)cyclohexane-1,4-diamine]

remaining activity at 10 µM (CDK4/D1): 28%
remaining activity at 10 µM (CDK6/D3): 69%
Ki (CDK9/T1): 0.071 µM
remaining activity at 10 µM (CDKs and other kinases [1]): 35%
remaining activity at 10 µM (CDKs and other kinases [2]): 31%
remaining activity at 10 µM (CDKs and other kinases [3]): 49%
GI50 (leukemia cell lines): 0.336 ± 0.082 µM
SMILES: Cc1cnc(N[C@H]2CC[C@@H](N)CC2)nc1-c1cnc2ccc(Nc3cncnc3)cn12 [Compound 93, (1s,4s)-N^1-(5-Methyl-4-(6-(pyrimidin-5-ylamino)imidazo [1,2-a]pyridin-3-yl)pyrimidin-2-yl)cyclohexane-1,4-diamine]

remaining activity at 10 µM (CDK4/D1): 17%
remaining activity at 10 µM (CDK6/D3): 41%
Ki (CDK9/T1): 0.082 µM
remaining activity at 10 µM (CDKs and other kinases [1]): 5%
remaining activity at 10 µM (CDKs and other kinases [2]): 7%
remaining activity at 10 µM (CDKs and other kinases [3]): 19%
GI50 (leukemia cell lines): 0.014 ± 0.007 µM
SMILES: Cc1cnc(N[C@H]2CC[C@@H](N)CC2)nc1-c1cnc2ccc(-c3ccccc3)cn12 [Compound 91, (1s,4s)-N^1-(5-Methyl-4-(6-phenylimidazo[1,2-a]pyridin-3-yl)pyrimidin-2-yl)cyclohexane-1,4-diamine]

More lines, now with the values behind:

SMILES: N[C@H]1CC[C@H](Nc2ncc(F)c(-c3cnc4ccc(-c5ncccc5F)cn34)n2)CC1 [Compound 27, (1r,4r)-N^1-(5-Fluoro-4-(6-(3-fluoropyridin-2-yl)imidazo [1,2-a]pyridin-3-yl)pyrimidin-2-yl)cyclohexane-1,4-diamine]
remaining activity at 10 µM (CDK4/D1): 4%
remaining activity at 10 µM (CDK6/D3): 15%
Ki (CDK9/T1): 0.003 µM
remaining activity at 10 µM (CDKs and other kinases [1]): -1%
remaining activity at 10 µM (CDKs and other kinases [2]): 4%
remaining activity at 10 µM (CDKs and other kinases [3]): 2%
GI50 (leukemia cell lines): < 0.001 µM

SMILES: N[C@H]1CC[C@H](Nc2ncc(F)c(-c3cnc4ccc(Nc5cccc(F)c5)cn34)n2)CC1 [Compound 25, (1r,4r)-N^1-(5-Fluoro-4-(6-((3-fluorophenyl)amino)imidazo[1,2-a]pyridin-3-yl)pyrimidin-2-yl) cyclohexane-1,4-diamine]
remaining activity at 10 µM (CDK4/D1): 4%
remaining activity at 10 µM (CDK6/D3): 4%
Ki (CDK9/T1): 0.003 µM
remaining activity at 10 µM (CDKs and other kinases [1]): 3%
remaining activity at 10 µM (CDKs and other kinases [2]): 2%
remaining activity at 10 µM (CDKs and other kinases [3]): 1%
GI50 (leukemia cell lines): < 0.001 µM

SMILES: Cc1cnc(N[C@H]2CC[C@H](O)CC2)nc1-c1cnc2ccc(Nc3cccnc3)cn12 [Compound 106, (1r,4r)-4-((5-Methyl-4-(6-(pyridin-3-ylamino)imidazo [1,2-a]pyridin-3-yl)pyrimidin-2-yl)amino)cyclohexan-1-ol]
remaining activity at 10 µM (CDK4/D1): 43%
remaining activity at 10 µM (CDK6/D3): 71%
Ki (CDK9/T1): 0.042 µM
remaining activity at 10 µM (CDKs and other kinases [1]): 5%
remaining activity at 10 µM (CDKs and other kinases [2]): 2%
remaining activity at 10 µM (CDKs and other kinases [3]): 25%
GI50 (leukemia cell lines): 0.851 ± 0.048 µM

SMILES: Cc1cnc(NC2CCCC(N)C2)nc1-c1cnc2ccc(Nc3cncnc3)cn12 (centres unmarked) [Compound 96, N^1-(5-Methyl-4-(6-(pyrimidin-5-ylamino)imidazo[1,2-a]pyridin-3-yl)pyrimidin-2-yl)cyclohexane-1,3-diamine]
remaining activity at 10 µM (CDK4/D1): 49%
remaining activity at 10 µM (CDK6/D3): 90%
Ki (CDK9/T1): 0.193 µM
remaining activity at 10 µM (CDKs and other kinases [1]): 63%
remaining activity at 10 µM (CDKs and other kinases [2]): 37%
remaining activity at 10 µM (CDKs and other kinases [3]): 63%
GI50 (leukemia cell lines): > 10 µM

Reference: patent publication US11111245B2, “Derivatives of N-cycloalkyl/heterocycloalkyl-4-(imidazo[1,2-a]pyridine)pyrimidin-2-amine as therapeutic agents” (Aucentra Therapeutics Pty Ltd, priority 2017, dated 2021)
